The values below are quoted from earlier work in patent US11359044B2, “Preparation and application of novel multifunctional nanocomposite material with new photosensitizer” (priority 2018, dated 2022).

The conditions of the series: in DMSO, used as control.

Each structure is given as a SMILES string.

On to `[Zn+2].c1ccc2c(c1)-c1nc-2nc2[n-]c(nc3nc([n-]c4nc(n1)-c1ccccc1-4)-c1ccccc1-3)c1ccccc21` [ZnPc, zinc phthalocyanine], for which the singlet oxygen yield was 0.67.
